# Results from paper PMC4844702, “Selective inhibition of the kinase DYRK1A by targeting its folding process” (Nature Communications, 2016).
# What was measured:
# TEC = molecular target: T1, TEC (Homo sapiens, UniProt P42680); assay: Kinase panel (Carna); assay type: biochemical
# T1 construct: purchased Carna Biosciences
# Text: (§1) Detailed information on the assay conditions is available on the website of Carna Biosciences (http://www.carnabio.com).
# PAK6 = molecular target: T2, PAK6 (Homo sapiens, UniProt Q9NQU5); assay: Kinase panel (Carna); assay type: biochemical
# T2 construct: purchased Carna Biosciences
# Text: as §1
# CDC2/CycB1 = molecular target: T3, CDC2/CycB1 (Homo sapiens, UniProt P06493); assay: Kinase panel (Carna); assay type: biochemical
# T3 construct: purchased Carna Biosciences
# NEK6 = molecular target: T4, NEK6 (Homo sapiens, UniProt Q9HC98); assay: Kinase panel (Carna); assay type: biochemical
# T4 construct: purchased Carna Biosciences
# PDHK2 = molecular target: T5, PDHK2 (Homo sapiens, UniProt Q15119); assay: Kinase panel (Carna); assay type: biochemical
# T5 construct: purchased Carna Biosciences
# Text: as §1
# FGR = molecular target: T6, FGR (Homo sapiens, UniProt P09769); assay: Kinase panel (Carna); assay type: biochemical
# T6 construct: purchased Carna Biosciences
# PLK1 = molecular target: T7, PLK1 (Homo sapiens, UniProt P53350); assay: Kinase panel (Carna); assay type: biochemical
# T7 construct: purchased Carna Biosciences
# EPHA3 = molecular target: T8, EPHA3 (Homo sapiens, UniProt P29320); assay: Kinase panel (Carna); assay type: biochemical
# T8 construct: purchased Carna Biosciences
# T8 sequence (P29320 21-983): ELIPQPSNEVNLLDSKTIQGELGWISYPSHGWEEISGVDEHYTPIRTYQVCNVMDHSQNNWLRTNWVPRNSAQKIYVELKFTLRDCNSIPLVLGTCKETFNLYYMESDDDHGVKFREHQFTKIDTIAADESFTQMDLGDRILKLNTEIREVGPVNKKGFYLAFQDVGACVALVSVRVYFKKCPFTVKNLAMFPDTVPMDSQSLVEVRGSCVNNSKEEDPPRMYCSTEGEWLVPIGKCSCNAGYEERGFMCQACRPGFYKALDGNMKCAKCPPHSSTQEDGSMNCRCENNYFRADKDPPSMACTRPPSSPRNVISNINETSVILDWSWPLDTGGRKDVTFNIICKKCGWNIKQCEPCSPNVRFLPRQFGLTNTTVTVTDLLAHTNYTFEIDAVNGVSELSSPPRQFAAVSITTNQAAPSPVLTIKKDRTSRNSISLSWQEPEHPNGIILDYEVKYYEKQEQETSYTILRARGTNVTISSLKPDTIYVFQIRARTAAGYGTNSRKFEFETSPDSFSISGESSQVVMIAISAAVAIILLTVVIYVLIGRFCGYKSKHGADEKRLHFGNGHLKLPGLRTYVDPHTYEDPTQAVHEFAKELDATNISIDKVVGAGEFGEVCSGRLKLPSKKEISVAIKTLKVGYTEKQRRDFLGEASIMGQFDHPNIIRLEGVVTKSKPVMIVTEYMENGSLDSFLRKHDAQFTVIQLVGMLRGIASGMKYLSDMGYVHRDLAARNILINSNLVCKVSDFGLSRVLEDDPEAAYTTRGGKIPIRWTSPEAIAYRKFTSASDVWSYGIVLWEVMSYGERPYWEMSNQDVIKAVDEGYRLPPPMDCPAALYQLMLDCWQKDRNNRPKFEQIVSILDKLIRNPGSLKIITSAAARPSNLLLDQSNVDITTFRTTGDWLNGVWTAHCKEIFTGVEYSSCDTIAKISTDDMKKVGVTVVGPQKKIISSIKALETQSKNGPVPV
# NEK7 = molecular target: T9, NEK7 (Homo sapiens, UniProt Q8TDX7); assay: Kinase panel (Carna); assay type: biochemical
# T9 construct: purchased Carna Biosciences
# T9 sequence (Q8TDX7 whole entry): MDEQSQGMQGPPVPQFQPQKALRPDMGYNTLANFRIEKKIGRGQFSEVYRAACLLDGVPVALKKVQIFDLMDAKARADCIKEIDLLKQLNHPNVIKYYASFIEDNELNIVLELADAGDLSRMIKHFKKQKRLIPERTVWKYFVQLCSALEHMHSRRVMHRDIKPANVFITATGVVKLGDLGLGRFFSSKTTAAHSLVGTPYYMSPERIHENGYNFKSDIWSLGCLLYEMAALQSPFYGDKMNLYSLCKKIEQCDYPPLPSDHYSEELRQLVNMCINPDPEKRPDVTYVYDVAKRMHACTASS
# MNK1 = molecular target: T10, MNK1 (Homo sapiens, UniProt Q9BUB5); assay: Kinase panel (Carna); assay type: biochemical
# T10 construct: purchased Carna Biosciences
# T10 sequence (Q9BUB5 whole entry): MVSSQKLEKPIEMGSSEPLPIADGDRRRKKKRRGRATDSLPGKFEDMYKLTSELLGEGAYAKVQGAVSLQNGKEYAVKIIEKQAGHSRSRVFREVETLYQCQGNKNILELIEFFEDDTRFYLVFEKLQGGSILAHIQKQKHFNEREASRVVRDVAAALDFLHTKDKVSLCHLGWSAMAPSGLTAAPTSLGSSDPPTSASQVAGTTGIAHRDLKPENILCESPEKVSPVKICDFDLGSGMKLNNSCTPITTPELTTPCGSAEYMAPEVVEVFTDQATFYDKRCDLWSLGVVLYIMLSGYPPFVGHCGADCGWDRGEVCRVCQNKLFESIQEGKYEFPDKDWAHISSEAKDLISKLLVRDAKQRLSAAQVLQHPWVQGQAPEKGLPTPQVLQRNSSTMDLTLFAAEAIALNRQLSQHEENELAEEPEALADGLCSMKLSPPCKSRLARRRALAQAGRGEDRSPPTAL
# ITK = molecular target: T11, ITK (Homo sapiens, UniProt Q08881); assay: Kinase panel (Carna); assay type: biochemical
# T11 construct: purchased Carna Biosciences
# Text: as §1
# MOS_Cascade = molecular target: T12, MOS_Cascade (Homo sapiens, UniProt P00540); assay: Kinase panel (Carna); assay type: biochemical
# T12 construct: purchased Carna Biosciences
# BLK = molecular target: T13, BLK (Homo sapiens, UniProt P51451); assay: Kinase panel (Carna); assay type: biochemical
# T13 construct: purchased Carna Biosciences
# Text: as §1
# MAP2K3_Cascade = molecular target: T14, MAP2K3_Cascade (Homo sapiens, UniProt P46734); assay: Kinase panel (Carna); assay type: biochemical
# T14 construct: purchased Carna Biosciences
# T14 sequence (P46734 whole entry): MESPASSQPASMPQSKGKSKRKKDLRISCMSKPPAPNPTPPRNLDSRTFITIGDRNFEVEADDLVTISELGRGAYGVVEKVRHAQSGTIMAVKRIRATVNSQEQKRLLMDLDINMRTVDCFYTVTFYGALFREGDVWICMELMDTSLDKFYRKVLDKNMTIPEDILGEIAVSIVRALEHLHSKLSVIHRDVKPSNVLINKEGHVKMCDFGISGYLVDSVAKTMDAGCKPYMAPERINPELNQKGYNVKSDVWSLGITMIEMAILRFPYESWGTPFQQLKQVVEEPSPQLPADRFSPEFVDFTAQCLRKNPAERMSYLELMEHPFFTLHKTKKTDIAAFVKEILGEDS
# BRSK1 = molecular target: T15, BRSK1 (Homo sapiens, UniProt Q8TDC3); assay: Kinase panel (Carna); assay type: biochemical
# T15 construct: purchased Carna Biosciences
# Text: as §1
# CaMK2β = molecular target: T16, CaMK2β (Homo sapiens, UniProt Q13554); assay: Kinase panel (Carna); assay type: biochemical
# T16 construct: purchased Carna Biosciences
# CK2α1/β = molecular target: T17, CK2α1/β (Homo sapiens, UniProt P68400); assay: Kinase panel (Carna); assay type: biochemical
# T17 construct: purchased Carna Biosciences
# JAK1 = molecular target: T18, JAK1 (Homo sapiens, UniProt P23458); assay: Kinase panel (Carna); assay type: biochemical
# T18 construct: purchased Carna Biosciences
# Text: as §1
# TSSK1 = molecular target: T19, TSSK1 (Homo sapiens, UniProt Q9BXA7); assay: Kinase panel (Carna); assay type: biochemical
# T19 construct: purchased Carna Biosciences
# Text: as §1
# HIPK3 = molecular target: T20, HIPK3 (Homo sapiens, UniProt Q9H422); assay: Kinase panel (Carna); assay type: biochemical
# T20 construct: purchased Carna Biosciences
# Text: as §1
# PKN1 = molecular target: T21, PKN1 (Homo sapiens, UniProt Q16512); assay: Kinase panel (Carna); assay type: biochemical
# T21 construct: purchased Carna Biosciences
# PAK1 = molecular target: T22, PAK1 (Homo sapiens, UniProt Q13153); assay: Kinase panel (Carna); assay type: biochemical
# T22 construct: purchased Carna Biosciences
# Text: as §1
# CK1γ1 = molecular target: T23, CK1γ1 (Homo sapiens, UniProt Q9HCP0); assay: Kinase panel (Carna); assay type: biochemical
# T23 construct: purchased Carna Biosciences
# MSK2 = molecular target: T24, MSK2 (Homo sapiens, UniProt O75676); assay: Kinase panel (Carna); assay type: biochemical
# T24 construct: purchased Carna Biosciences
# T24 sequence (O75676 whole entry): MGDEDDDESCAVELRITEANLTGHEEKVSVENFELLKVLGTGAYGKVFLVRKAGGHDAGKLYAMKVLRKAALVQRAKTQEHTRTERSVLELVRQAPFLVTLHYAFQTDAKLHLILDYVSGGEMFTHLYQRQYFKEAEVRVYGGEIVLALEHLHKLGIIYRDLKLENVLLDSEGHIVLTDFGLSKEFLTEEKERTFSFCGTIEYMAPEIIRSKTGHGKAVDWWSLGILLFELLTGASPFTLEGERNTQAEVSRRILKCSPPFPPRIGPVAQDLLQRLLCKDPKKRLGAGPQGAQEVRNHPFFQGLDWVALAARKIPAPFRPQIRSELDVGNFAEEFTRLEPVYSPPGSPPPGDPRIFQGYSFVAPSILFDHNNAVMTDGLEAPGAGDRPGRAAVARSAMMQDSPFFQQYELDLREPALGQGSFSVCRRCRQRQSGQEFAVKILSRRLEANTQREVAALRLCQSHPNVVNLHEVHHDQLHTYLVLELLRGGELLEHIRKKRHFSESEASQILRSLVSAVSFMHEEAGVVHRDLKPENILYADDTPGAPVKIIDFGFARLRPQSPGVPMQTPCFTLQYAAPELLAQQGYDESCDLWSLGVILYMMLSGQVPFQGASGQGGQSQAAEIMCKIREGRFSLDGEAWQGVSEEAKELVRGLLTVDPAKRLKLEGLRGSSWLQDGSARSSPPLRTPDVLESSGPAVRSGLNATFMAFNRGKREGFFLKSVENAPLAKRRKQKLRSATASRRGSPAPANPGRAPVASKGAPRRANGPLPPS
# Text: as §1
# EPHB3 = molecular target: T25, EPHB3 (Homo sapiens, UniProt P54753); assay: Kinase panel (Carna); assay type: biochemical
# T25 construct: purchased Carna Biosciences
# T25 sequence (P54753 34-998): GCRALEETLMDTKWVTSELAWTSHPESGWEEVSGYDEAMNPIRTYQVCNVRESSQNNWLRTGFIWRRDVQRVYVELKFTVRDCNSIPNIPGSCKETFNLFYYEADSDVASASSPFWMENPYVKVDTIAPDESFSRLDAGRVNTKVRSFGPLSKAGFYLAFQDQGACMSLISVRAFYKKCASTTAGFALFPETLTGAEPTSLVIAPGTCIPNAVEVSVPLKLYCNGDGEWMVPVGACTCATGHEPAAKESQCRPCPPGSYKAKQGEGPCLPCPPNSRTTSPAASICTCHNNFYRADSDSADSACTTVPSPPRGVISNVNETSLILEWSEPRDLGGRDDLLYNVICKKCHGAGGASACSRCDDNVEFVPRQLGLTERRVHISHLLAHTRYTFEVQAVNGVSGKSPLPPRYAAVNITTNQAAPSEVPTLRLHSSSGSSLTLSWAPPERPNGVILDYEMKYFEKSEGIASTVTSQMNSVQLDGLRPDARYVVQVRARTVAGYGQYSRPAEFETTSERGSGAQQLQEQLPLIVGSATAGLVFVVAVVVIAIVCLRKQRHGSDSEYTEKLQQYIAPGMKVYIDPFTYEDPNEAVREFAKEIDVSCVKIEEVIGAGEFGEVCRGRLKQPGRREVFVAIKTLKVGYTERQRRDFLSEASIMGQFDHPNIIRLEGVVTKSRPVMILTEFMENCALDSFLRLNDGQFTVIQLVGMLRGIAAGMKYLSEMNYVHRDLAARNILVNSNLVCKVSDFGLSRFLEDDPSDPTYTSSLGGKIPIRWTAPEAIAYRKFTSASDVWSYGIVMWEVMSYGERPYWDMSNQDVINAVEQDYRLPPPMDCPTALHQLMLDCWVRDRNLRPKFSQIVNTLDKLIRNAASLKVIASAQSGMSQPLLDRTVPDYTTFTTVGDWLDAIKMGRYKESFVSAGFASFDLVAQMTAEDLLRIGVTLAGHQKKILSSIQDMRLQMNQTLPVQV
# Text: as §1
# PDGFRβ = molecular target: T26, PDGFRβ (Homo sapiens, UniProt P09619); assay: Kinase panel (Carna); assay type: biochemical
# T26 construct: purchased Carna Biosciences
# Text: as §1
# AMPKα2/β1/γ1 = molecular target: T27, AMPKα2/β1/γ1 (Homo sapiens, UniProt P54646); assay: Kinase panel (Carna); assay type: biochemical
# T27 construct: purchased Carna Biosciences
# Text: as §1
# other 13 kinases = assay: Endogenous kinases in intact HEK293 cells, western blot; assay type: cell-based; conditions: 3 days
# Text: The results are presented as means±s.d. (n=4). […] Representative data from the duplicate experiments are shown.
# HCK = molecular target: T28, HCK (Homo sapiens, UniProt P08631); assay: Kinase panel (Carna); assay type: biochemical
# T28 construct: purchased Carna Biosciences
# Text: as §1
# HIPK1 = molecular target: T29, HIPK1 (Homo sapiens, UniProt Q86Z02); assay: Kinase panel (Carna); assay type: biochemical
# T29 construct: purchased Carna Biosciences
# Text: as §1
# LOK = molecular target: T30, LOK (Homo sapiens, UniProt O94804); assay: Kinase panel (Carna); assay type: biochemical
# T30 construct: purchased Carna Biosciences
# PAK5 = molecular target: T31, PAK5 (Homo sapiens, UniProt Q9P286); assay: Kinase panel (Carna); assay type: biochemical
# T31 construct: purchased Carna Biosciences
# Text: as §1
# HIPK2 = molecular target: T32, HIPK2 (Homo sapiens, UniProt Q9H2X6); assay: Kinase panel (Carna); assay type: biochemical
# T32 construct: purchased Carna Biosciences
# Text: as §1
# CaMK1α = molecular target: T33, CaMK1α (Homo sapiens, UniProt Q14012); assay: Kinase panel (Carna); assay type: biochemical
# T33 construct: purchased Carna Biosciences
# Text: as §1
# TSSK2 = molecular target: T34, TSSK2 (Homo sapiens, UniProt Q96PF2); assay: Kinase panel (Carna); assay type: biochemical
# T34 construct: purchased Carna Biosciences
# Text: as §1
# PHKG1 = molecular target: T35, PHKG1 (Homo sapiens, UniProt Q16816); assay: Kinase panel (Carna); assay type: biochemical
# T35 construct: purchased Carna Biosciences
# T35 sequence (Q16816 whole entry): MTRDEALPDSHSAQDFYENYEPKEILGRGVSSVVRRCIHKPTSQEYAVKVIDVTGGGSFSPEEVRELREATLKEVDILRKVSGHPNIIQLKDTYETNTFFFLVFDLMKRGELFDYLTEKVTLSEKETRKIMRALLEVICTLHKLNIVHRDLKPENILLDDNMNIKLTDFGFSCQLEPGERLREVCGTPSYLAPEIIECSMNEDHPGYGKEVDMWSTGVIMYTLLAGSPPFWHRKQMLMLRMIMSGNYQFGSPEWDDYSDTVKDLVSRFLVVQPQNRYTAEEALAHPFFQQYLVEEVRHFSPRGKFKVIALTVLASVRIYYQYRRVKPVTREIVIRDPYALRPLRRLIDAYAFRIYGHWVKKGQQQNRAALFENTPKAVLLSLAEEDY
# Text: as §1
# MGC42105 = molecular target: T36, MGC42105 (Homo sapiens, UniProt Q8IY84); assay: Kinase panel (Carna); assay type: biochemical
# T36 construct: purchased Carna Biosciences
# Text: as §1
# MAP3K2_Cascade = molecular target: T37, MAP3K2_Cascade (Homo sapiens, UniProt Q9Y2U5); assay: Kinase panel (Carna); assay type: biochemical
# T37 construct: purchased Carna Biosciences
# Text: as §1
# ZAP70 = molecular target: T38, ZAP70 (Homo sapiens, UniProt P43403); assay: Kinase panel (Carna); assay type: biochemical
# T38 construct: purchased Carna Biosciences
# Text: as §1
# FLT4 = molecular target: T39, FLT4 (Homo sapiens, UniProt P35916); assay: Kinase panel (Carna); assay type: biochemical
# T39 construct: purchased Carna Biosciences
# Text: as §1
# YES = molecular target: T40, YES (Homo sapiens, UniProt P07947); assay: Kinase panel (Carna); assay type: biochemical
# T40 construct: purchased Carna Biosciences
# Text: as §1
# FRK = molecular target: T41, FRK (Homo sapiens, UniProt P42685); assay: Kinase panel (Carna); assay type: biochemical
# T41 construct: purchased Carna Biosciences
# Text: as §1
# JNK2 = molecular target: T42, JNK2 (Homo sapiens, UniProt P45984); assay: Kinase panel (Carna); assay type: biochemical
# T42 construct: purchased Carna Biosciences
# PYK2 = molecular target: T43, PYK2 (Homo sapiens, UniProt Q14289); assay: Kinase panel (Carna); assay type: biochemical
# T43 construct: purchased Carna Biosciences
# Text: as §1
# T1 sequence (P42680 whole entry): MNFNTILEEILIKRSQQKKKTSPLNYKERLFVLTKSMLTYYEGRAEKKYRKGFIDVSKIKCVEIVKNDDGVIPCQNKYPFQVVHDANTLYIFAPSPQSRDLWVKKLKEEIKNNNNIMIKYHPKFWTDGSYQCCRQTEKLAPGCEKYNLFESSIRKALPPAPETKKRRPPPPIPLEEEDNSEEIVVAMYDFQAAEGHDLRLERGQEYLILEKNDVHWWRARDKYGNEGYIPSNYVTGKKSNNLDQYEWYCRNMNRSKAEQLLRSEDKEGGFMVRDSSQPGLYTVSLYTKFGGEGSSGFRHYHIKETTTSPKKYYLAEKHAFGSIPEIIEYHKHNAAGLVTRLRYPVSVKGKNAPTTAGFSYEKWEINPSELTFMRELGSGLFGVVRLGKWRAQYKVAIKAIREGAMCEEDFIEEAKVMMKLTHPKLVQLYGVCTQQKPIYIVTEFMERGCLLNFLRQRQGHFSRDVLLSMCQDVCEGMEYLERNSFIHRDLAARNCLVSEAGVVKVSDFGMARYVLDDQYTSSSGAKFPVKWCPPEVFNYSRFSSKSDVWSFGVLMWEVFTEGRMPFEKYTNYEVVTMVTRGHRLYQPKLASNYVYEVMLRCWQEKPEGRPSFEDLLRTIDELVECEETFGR
structure (smiles),measurement,setting,value
COc1ccc(/C=C2\SC(=S)NC2=O)cc1C#C[Si](C)(C)C [FINDY],inhibition at 10 µM,TEC,32%
same,inhibition at 10 µM,PAK6,-145%
same,inhibition at 10 µM,CDC2/CycB1,43.4%
same,inhibition at 10 µM,NEK6,23.6%
same,inhibition at 10 µM,PDHK2,14.1%
same,inhibition at 10 µM,FGR,5.3%
same,inhibition at 10 µM,PLK1,23.7%
same,inhibition at 10 µM,EPHA3,20.8%
same,inhibition at 10 µM,NEK7,-12.3%
same,inhibition at 10 µM,MNK1,6.2%
same,inhibition at 10 µM,ITK,1.2%
same,inhibition at 10 µM,MOS_Cascade,60.1%
same,inhibition at 10 µM,BLK,25.5%
same,inhibition at 10 µM,MAP2K3_Cascade,26%
same,inhibition at 10 µM,BRSK1,24.3%
same,inhibition at 10 µM,CaMK2β,-3.3%
same,inhibition at 10 µM,CK2α1/β,45.4%
same,inhibition at 10 µM,JAK1,5.7%
same,inhibition at 10 µM,TSSK1,3.3%
same,inhibition at 10 µM,HIPK3,7.1%
same,inhibition at 10 µM,PKN1,-0.9%
same,inhibition at 10 µM,PAK1,-0.2%
same,inhibition at 10 µM,CK1γ1,19.9%
same,inhibition at 10 µM,MSK2,20.8%
same,inhibition at 10 µM,EPHB3,22.2%
same,inhibition at 10 µM,PDGFRβ,8.2%
same,inhibition at 10 µM,AMPKα2/β1/γ1,1.7%
same,endogenous expression of the other 13 kinases,other 13 kinases,no alteration
same,inhibition at 10 µM,HCK,35.3%
same,inhibition at 10 µM,HIPK1,11.8%
same,inhibition at 10 µM,LOK,-28.2%
same,inhibition at 10 µM,PAK5,-7%
same,inhibition at 10 µM,HIPK2,6.2%
same,inhibition at 10 µM,CaMK1α,-4.1%
same,inhibition at 10 µM,TSSK2,39.9%
same,inhibition at 10 µM,PHKG1,8.9%
same,inhibition at 10 µM,MGC42105,12.5%
same,inhibition at 10 µM,MAP3K2_Cascade,55.8%
same,inhibition at 10 µM,ZAP70,12.9%
same,inhibition at 10 µM,FLT4,9.8%
same,inhibition at 10 µM,YES,6.4%
same,inhibition at 10 µM,FRK,8.4%
same,inhibition at 10 µM,JNK2,0.4%
same,inhibition at 10 µM,PYK2,3.6%
